Laboratory results taken from patent US11795173B1, “Substituted pyridines as PARP1 inhibitors” (Xinthera, Inc., priority 2022, dated 2023).

Legend:
DLD-1 BRCA2(−/−) cells = experiment: Cell growth inhibition assay (CellTiter-Glo), DLD-1 BRCA2(−/−); type: cell-based; conditions: Homo sapiens, DLD-1, 168 h; cell viability, CellTiter Glo 2.0, 7 days
Experimental: The objective of this study is to evaluate the effect of compound disclosed herein on cell proliferation through the cell viability assay in DLD-1 BRCA2(−/−) and parental isogenic pair and MDA-MB-436 (mutated BRCA1) cell lines.
DLD-1 BRCA2(−/−) and parental isogenic pair were cultured in RPMI 1640 supplemented with 10% fetal bovine serum (FBS), and MDA-MB-436 cells were cultured in DMEM supplemented with 10% FBS. Both are culture at 37° C. with 5% CO2. […] The cells were seeded into the plate in the density of 50 cells/well (DLD-1 parental), 200 cells/well (DLD-1 BRCA2−/−), or 500 cells/well (MDA-MB-436). After a short spun, the cells were cultured in a well moisturized incubator at 37° C. with 5% CO2 for 7 days without disturbance. The cell viability was measured by CellTiter Glo 2.0 assay kit (Promega, G9243), and growth inhibition rate was calculated and plotted against final compound concentration, and the data were fitted in Xfit to generate IC50.

[1] = test system: MDA-MB-436 (mutated BRCA1) cells; experiment: Cell growth inhibition assay (CellTiter-Glo), MDA-MB-436; type: cell-based; conditions: Homo sapiens, MDA-MB-436, 168 h; cell viability, CellTiter Glo 2.0, 7 days
Description: (§1) The objective of this study is to evaluate the effect of compound disclosed herein on cell proliferation through the cell viability assay in DLD-1 BRCA2(−/−) and parental isogenic pair and MDA-MB-436 (mutated BRCA1) cell lines. The CellTiter-Glo (CTG) based cell viability assay is designed to determine the number of viable cells in the culture because of compound effect, by quantifying ATP, which indicates the presence of metabolically active cells.
(§2) DLD-1 BRCA2(−/−) and parental isogenic pair were cultured in RPMI 1640 supplemented with 10% fetal bovine serum (FBS), and MDA-MB-436 cells were cultured in DMEM supplemented with 10% FBS. Both are culture at 37° C. with 5% CO2. Invention compounds were distributed to the 384 well plate (Corning, 3764) using Echo acoustic liquid handler to form a 1:3 serially diluted final concentration with top dose of 10 or 30 μM. The cells were seeded into the plate in the density of 50 cells/well (DLD-1 parental), 200 cells/well (DLD-1 BRCA2−/−), or 500 cells/well (MDA-MB-436). After a short spun, the cells were cultured in a well moisturized incubator at 37° C. with 5% CO2 for 7 days without disturbance. The cell viability was measured by CellTiter Glo 2.0 assay kit (Promega, G9243), and growth inhibition rate was calculated and plotted against final compound concentration, and the data were fitted in Xfit to generate IC50.

PARP1 = PARP1 (Homo sapiens (Human), UniProt P09874); experiment: Biochemical fluorescence polarization (FP) assay, PARPi-FL displacement, PARP1; type: binding; conditions: 20 nM protein, 3 nM PARPi-FL, 4 h at room temperature
Experimental: (§3) To characterize our compounds, we utilized an assay measuring the displacement of a commercially available fluorescently labeled PARP 1/2 inhibitor (PARPi-FL, Tocris Biosciences, #6461) as exemplified in assays performed in WO2014/064149 and WO2021/013735A1. The assay was performed utilizing the following method: Compounds were dissolved in DMSO an Echo550 liquid handler was utilized to make serial dilations in the desired concentration range in Optiplate-384F plates. 100% DMSO was used for the high (with protein) and low (without protein) control samples. 20 nL of compound or DMSO alone was added to individual assay plate wells. […] The PARPi-FL was then added at a final concentration of 3 nM. The assay plate is centrifuged at 1000 rpm for 1 min and incubated for 4 h at room temperature. […] XLFit (equation 201) is used to calculate a reported IC50 for each compound.

PARP2 = PARP2 (Homo sapiens (Human), UniProt Q9UGN5); experiment: Biochemical fluorescence polarization (FP) assay, PARPi-FL displacement, PARP2; type: binding; conditions: 20 nM protein, 3 nM PARPi-FL, 4 h at room temperature
Experimental: as §3

MDR1 = MDR1 (Homo sapiens (Human), UniProt P08183); experiment: In vitro human transporter efflux, MDCKII cells expressing MDR1; type: in vitro ADME; conditions: for Papp A→B at 2 h, 10 μM: MDCK-MDR1, pH 7.4, apical-to-basolateral, pH7.4, read-out: MDCK-MDR1 Papp AB; for Papp A→B at 2 h, 10 μM / Papp B→A at 2 h, 10 μM: 2-hour incubation; for Papp B→A at 2 h, 10 μM: MDCK-MDR1, pH 7.4, basolateral-to-apical, pH7.4, read-out: MDCK-MDR1 Papp BA; for efflux ratio at 2 h, 10 μM: MDCK-MDR1, pH 7.4, efflux ratio Papp BA/Papp AB
Experimental: (§4) Madin-Darby canine kidney (MDCKII) cells expressing either MDR1 or BCRP were seeded onto Corning HTS Transwell® 96-well polycarbonate permeable (0.4 μm pore) supports at a density of 545,000 cells/cm^2. Cells were incubated for 4-8 days prior to assay, and monolayer integrity was assessed by measuring transepithelial electrical resistance (TEER). […] The final organic solvent concentration was 0.5% (v/v). Bidirectional (apical-to-basolateral and basolateral-to-apical) flux of the test and reference compounds was determined over a 2-hour incubation at 37° C. and 5% CO2 with a relative humidity of 95%. At the end of the incubation, samples from the apical and basolateral side were taken and then precipitated with acetonitrile containing internal standard. After centrifugation at 3200×g, supernatants were diluted 1:1 (v/v) with water and subjected to analysis via HPLC-MS/MS.
(§5) Apparent permeability (Papp, ×10^−6 cm/s) was calculated for all transport assays using the following equation: […]
(§6) Efflux ratio was determined by calculating the ratio of the Papp in the basolateral-to-apical direction to the Papp in the apical-to-basolateral direction using the following equation: […]

[2] = HLM stability, predicted human hepatic clearance; type: in vitro ADME; conditions: well-stirred model, 1 μM, 0.5 mg/mL microsomal protein, NADPH
Experimental: Working stocks of individual test articles were prepared at a concentration of 100 μM by diluting 10 mM stocks prepared in DMSO 100-fold (v:v) into ACN. Thawed hepatic microsomes were suspended in 100 mM potassium phosphate buffer, pH 7.4 to a microsomal protein concentration of 0.562 mg/mL. Diluted microsomes were combined with a solution of 10 mM NADPH, and the mixture was pre-warmed to 37° C. for 8 min. Reactions were initiated by addition of the test article working stocks to achieve a final test article concentration of 1 μM. Final microsomal protein and NADPH concentrations were 0.5 mg/mL and 1 mM, respectively. Incubations containing NADPH were run in duplicate. Test article losses mediated by non-CYP mechanisms were evaluated in a parallel set of incubations run in the absence of NADPH. Incubations lacking NADPH consisted of 1 replicate per test article. Following incubation in a 37° C. water bath, aliquots of individual reactions were quenched with cold ACN containing internal standards at […], 15-, 30-, 60-, 90-, and 120-min. Precipitated protein was pelleted via refrigerated centrifugation. Supernatants were diluted into an equal volume of pure water and mixed well prior to analysis via LC-MS/MS. In vitro intrinsic clearances (CLint) in μL/min/mg were determined for each incubation from calculated in vitro half-lives determined using a standard log-linear regression approach. In vitro CLint values were scaled up using the following physiological scaling factors: 40 mg microsomal protein/g human liver and 25.7 g human liver/kg body weight.

[3] = hHEP stability, predicted human hepatic clearance; type: in vitro ADME; conditions: well-stirred model, 0.5×10^6 viable cells/mL
Experimental: Working stocks of individual test articles were prepared at concentrations of 100 μM by diluting 10 mM stocks prepared in DMSO 100-fold (v:v) into ACN/H2O (50/50, v:v). Human cryopreserved hepatocytes were thawed in a 37° C. water bath in <2 min., suspended in thawing media, and then centrifuged at 100×g for 10 min. Thawing media was aspirated, and pelleted hepatocytes were resuspended into incubation media at 1.5×10^6 cells/mL. Cell viability was determined using an Acridine Orange/Propidium Iodine stain, and hepatocytes were further diluted with incubation media to 0.5×10^6 viable cells/mL. Hepatocyte aliquots of 198 μL were added to wells of a 96-well plate, and test article incubations were initiated by the addition of 2 μL of 100 μM working stocks. Plates were incubated at 37° C. in a 5% CO2 atmosphere at 95% relative humidity on an orbital shaker at 300 rpm. Incubations were performed in duplicate. Following incubation, aliquots of individual reactions were terminated by addition of ACN containing internal standards at 0, 30-, 60-, 90-, 120-, and 240-min. Precipitated protein was pelleted via refrigerated centrifugation. Supernatants were diluted into an equal volume of pure water and mixed well prior to analysis via LC-MS/MS. In vitro intrinsic clearances (CLint) in μL/min/10^6 cells were determined for each incubation from calculated in vitro half-lives determined using a standard log-linear regression approach. In vitro CLint values were scaled up using the following physiological scaling factors: 99×10^6 cells/g human liver and 25.7 g human liver/kg body weight.

DLD-1 parental cells = experiment: Cell growth inhibition assay (CellTiter-Glo), DLD-1 parental; type: cell-based; conditions: Homo sapiens, DLD-1, 168 h; cell viability, CellTiter Glo 2.0, 7 days
Description: as §1, §2

BCRP = BCRP (Homo sapiens (Human), UniProt Q9UNQ0); experiment: In vitro human transporter efflux, MDCKII cells expressing BCRP; type: in vitro ADME; conditions: for Papp A→B at 2 h, 10 μM: pH 7.4, apical-to-basolateral, pH7.4, read-out: BCRP Papp AB; for Papp A→B at 2 h, 10 μM / Papp B→A at 2 h, 10 μM: 2-hour incubation; for Papp B→A at 2 h, 10 μM: pH 7.4, basolateral-to-apical, pH7.4, read-out: BCRP Papp BA; for efflux ratio at 2 h, 10 μM: pH 7.4, efflux ratio Papp BA/Papp AB
Experimental: as §4, §5, §6

Sequence of BCRP (Q9UNQ0 whole entry): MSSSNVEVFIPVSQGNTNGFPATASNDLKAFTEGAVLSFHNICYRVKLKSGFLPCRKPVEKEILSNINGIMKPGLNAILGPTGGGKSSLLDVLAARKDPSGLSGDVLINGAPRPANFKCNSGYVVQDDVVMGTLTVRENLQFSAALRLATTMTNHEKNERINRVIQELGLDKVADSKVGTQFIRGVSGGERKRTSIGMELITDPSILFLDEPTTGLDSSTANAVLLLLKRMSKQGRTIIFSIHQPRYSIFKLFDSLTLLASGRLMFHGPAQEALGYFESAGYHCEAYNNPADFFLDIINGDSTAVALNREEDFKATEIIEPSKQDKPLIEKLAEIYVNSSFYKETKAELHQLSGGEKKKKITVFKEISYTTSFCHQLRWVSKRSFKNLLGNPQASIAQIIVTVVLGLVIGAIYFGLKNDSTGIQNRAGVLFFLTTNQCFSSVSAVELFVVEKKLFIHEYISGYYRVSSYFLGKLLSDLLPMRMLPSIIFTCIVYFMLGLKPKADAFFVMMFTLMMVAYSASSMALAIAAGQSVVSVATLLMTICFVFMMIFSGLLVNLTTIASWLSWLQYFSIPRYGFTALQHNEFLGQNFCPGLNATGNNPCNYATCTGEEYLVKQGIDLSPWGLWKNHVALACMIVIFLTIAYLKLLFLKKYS
Sequence of MDR1 (P08183 whole entry): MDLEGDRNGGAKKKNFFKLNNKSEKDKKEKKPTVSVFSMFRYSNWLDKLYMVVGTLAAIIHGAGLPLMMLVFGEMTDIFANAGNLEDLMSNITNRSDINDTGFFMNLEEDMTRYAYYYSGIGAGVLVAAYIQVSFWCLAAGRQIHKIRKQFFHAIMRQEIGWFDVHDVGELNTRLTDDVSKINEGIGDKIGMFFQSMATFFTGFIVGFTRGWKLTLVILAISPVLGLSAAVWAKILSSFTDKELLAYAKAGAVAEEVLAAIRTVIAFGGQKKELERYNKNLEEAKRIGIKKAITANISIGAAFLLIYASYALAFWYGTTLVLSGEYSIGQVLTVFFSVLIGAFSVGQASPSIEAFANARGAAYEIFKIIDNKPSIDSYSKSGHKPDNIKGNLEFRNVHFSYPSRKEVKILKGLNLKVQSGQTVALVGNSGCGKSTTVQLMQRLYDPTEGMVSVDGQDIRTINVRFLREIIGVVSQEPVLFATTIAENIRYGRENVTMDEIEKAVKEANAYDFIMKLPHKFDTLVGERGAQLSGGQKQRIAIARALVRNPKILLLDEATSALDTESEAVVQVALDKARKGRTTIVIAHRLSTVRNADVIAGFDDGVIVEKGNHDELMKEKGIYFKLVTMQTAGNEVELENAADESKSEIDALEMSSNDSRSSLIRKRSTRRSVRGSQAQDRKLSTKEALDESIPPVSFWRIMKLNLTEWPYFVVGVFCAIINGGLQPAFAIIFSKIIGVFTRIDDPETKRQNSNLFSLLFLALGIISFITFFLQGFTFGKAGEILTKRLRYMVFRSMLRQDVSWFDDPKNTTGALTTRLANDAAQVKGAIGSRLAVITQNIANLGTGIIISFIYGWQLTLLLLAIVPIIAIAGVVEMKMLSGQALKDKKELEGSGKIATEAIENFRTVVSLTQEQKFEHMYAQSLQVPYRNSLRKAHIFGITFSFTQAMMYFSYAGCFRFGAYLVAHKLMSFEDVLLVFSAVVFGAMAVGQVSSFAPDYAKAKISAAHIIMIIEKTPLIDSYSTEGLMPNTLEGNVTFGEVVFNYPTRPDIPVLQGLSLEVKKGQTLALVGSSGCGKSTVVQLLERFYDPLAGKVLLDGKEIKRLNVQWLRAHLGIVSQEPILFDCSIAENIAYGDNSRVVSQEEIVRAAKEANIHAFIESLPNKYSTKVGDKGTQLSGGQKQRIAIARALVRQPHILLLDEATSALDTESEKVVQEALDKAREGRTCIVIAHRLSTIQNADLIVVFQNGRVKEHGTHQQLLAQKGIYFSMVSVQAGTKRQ
Sequence of PARP2 (Q9UGN5 whole entry): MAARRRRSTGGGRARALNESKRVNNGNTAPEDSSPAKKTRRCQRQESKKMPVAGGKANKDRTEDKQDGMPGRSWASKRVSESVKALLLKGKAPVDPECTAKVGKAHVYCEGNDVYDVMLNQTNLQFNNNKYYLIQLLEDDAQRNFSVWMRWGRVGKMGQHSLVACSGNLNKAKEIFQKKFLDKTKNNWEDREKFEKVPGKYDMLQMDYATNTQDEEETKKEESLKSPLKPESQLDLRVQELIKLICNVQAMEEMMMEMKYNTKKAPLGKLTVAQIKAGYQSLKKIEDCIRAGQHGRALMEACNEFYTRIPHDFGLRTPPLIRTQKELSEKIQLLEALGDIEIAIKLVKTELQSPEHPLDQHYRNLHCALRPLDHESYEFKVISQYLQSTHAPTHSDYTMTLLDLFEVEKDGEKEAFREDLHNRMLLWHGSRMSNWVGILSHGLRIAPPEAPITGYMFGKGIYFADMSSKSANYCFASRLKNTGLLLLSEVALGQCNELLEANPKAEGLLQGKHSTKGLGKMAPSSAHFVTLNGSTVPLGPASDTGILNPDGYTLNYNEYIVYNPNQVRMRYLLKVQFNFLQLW
Sequence of PARP1 (P09874 whole entry): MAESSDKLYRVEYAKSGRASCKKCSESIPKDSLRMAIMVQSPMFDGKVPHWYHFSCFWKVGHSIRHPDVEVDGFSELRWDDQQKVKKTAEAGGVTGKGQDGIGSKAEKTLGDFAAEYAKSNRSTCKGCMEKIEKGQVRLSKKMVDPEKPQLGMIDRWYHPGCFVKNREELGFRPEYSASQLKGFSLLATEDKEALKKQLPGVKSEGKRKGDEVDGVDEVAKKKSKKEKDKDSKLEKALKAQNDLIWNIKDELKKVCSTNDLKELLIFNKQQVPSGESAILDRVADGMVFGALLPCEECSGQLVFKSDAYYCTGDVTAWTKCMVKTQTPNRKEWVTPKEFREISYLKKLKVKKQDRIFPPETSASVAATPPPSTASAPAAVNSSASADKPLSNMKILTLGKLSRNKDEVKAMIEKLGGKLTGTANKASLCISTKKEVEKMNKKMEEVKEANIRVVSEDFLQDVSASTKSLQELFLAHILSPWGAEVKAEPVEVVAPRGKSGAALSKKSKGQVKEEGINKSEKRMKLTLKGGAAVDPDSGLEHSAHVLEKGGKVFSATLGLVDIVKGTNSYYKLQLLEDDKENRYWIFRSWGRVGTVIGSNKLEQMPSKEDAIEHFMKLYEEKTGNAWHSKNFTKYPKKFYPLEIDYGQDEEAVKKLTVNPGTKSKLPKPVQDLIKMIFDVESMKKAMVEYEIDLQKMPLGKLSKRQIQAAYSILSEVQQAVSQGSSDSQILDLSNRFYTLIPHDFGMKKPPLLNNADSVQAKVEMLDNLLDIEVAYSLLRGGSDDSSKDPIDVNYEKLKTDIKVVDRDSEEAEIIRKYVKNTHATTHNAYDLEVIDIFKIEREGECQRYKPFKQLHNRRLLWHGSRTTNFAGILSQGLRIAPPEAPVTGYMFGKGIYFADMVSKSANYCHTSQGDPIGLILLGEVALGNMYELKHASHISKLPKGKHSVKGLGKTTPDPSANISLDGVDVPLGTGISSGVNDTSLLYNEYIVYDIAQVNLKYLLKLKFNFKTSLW

Row | SMILES | EC50 (DLD-1 BRCA2(−/−) cells) [nM] | EC50 [1] [nM] | IC50 (PARP1) [nM] | IC50 (PARP2) [nM] | Papp A→B at 2 h, 10 μM (MDR1) [×10⁻⁶ cm/s] | Papp B→A at 2 h, 10 μM (MDR1) [×10⁻⁶ cm/s] | HLM Clh [2] [mL/min/kg] | HHEP Clh [3] [mL/min/kg] | efflux ratio at 2 h, 10 μM (MDR1) | EC50 (DLD-1 parental cells) [nM] | Papp A→B at 2 h, 10 μM (BCRP) [×10⁻⁶ cm/s] | Papp B→A at 2 h, 10 μM (BCRP) [×10⁻⁶ cm/s] | efflux ratio at 2 h, 10 μM (BCRP)
1 | [2H]C([2H])([2H])NC(=O)c1ccc(N2CCN(Cc3ccc4c([nH]c(=O)c5c(F)cnn54)c3F)CC2)c(F)n1 (single isomer, unassigned) [Example 33] | 0.96 | 0.79 | 11 | > 100000 | – | – | – | – | – | – | – | – | –
2 | [2H]C([2H])(c1ccc2c([nH]c(=O)c3c(F)cnn32)c1F)N1CCN(c2ccc(C(=O)NC)nc2F)CC1 (single isomer, unassigned) [Example 34] | 0.99 | 1.1 | 40 | > 100000 | – | – | – | – | – | – | – | – | –
3 | CNC(=O)c1ccc(N2CCN(Cc3ccc4c5c(c(=O)[nH]c4c3)CCO5)CC2)c(C)n1 [Comp. Ex. 1, N,6-dimethyl-5-[4-({4-oxo-2H,3H,5H-furo[3,2-c]quinolin-7-yl}methyl)piperazin-1-yl]pyridine-2-carboxamide, reference compound] | 2 | 0.6 | – | – | 7.5 | 39.8 | <4 | <3.3 | – | – | – | – | –
4 | CNC(=O)c1ccc(N2CCN(Cc3ccc4c5c(c(=O)[nH]c4c3)CCO5)CC2)c(Cl)n1 [Comp. Ex. 2, 6-chloro-N-methyl-5-[4-({4-oxo-2H,3H,5H-furo[3,2-c]quinolin-7-yl}methyl)piperazin-1-yl]pyridine-2-carboxamide, reference compound] | 1.7 | 0.7 | – | – | 5.7 | 29 | 4.2 | 6.6 | 5.1 | – | – | – | –
5 | CNC(=O)c1ccc(N2CCN(Cc3cc(F)c4c5c(c(=O)[nH]c4c3)COC5)CC2)c(F)n1 [Comp. Ex. 3, 6-fluoro-5-(4-((9-fluoro-4-oxo-1,3,4,5-tetrahydrofuro[3,4-c]quinolin-7-yl)methyl)piperazin-1-yl)-N-methylpicolinamide, reference compound] | 1.6 | 0.4 | – | – | 6.6 | 32.3 | 7.2 | 7.1 | 5 | – | – | – | –
6 | CNC(=O)c1ccc(N2CCN(Cc3ccc4c([nH]c(=O)c5ccnn54)c3F)CC2)c(F)n1 [Example 1, 6-fluoro-5-[4-({6-fluoro-4-oxo-5H-pyrazolo[1,5-a]quinoxalin-7-yl}methyl)piperazin-1-yl]-N-methylpyridine-2-carboxamide] | 4.1 | 2.9 | – | – | 15.9 | 29.6 | – | – | 1.87 | > 30000 | 21.7 | 20.4 | 0.95
7 | CNC(=O)c1ccc(N2CCN(Cc3ccc4c5c(c(=O)[nH]c4c3F)CCO5)CC2)c(F)n1 [Example 9, 6-fluoro-5-[4-({6-fluoro-4-oxo-2H,3H,5H-furo[3,2-c]quinolin-7-yl}methyl)piperazin-1-yl]-N-methylpyridine-2-carboxamide] | 3.2 | 1.6 | – | – | 19.4 | 31.4 | <4 | <3.3 | – | > 30000 | 26.7 | 24.3 | –
8 | [2H]C([2H])([2H])NC(=O)c1ccc(N2CCN(Cc3ccc4c([nH]c(=O)c5ccnn54)c3F)CC2)c(F)n1 [Example 18] | 1.9 | 1.2 | 6.2 | > 100000 | 15.2 | 22.7 | – | – | 1.5 | > 30000 | 21.1 | 18.2 | 0.87
9 | [2H]C([2H])([2H])NC(=O)c1ccc(N2CCN(Cc3ccc4c([nH]c(=O)c5ccoc54)c3F)CC2)c(F)n1 [Example 30] | 6.5 | 4.6 | 56 | > 100000 | – | – | – | – | – | – | – | – | –
